Source: ChEMBL document CHEMBL5344475, “Indole-containing pharmaceuticals: targets, pharmacological activities, and SAR studies” (RSC Med Chem, 2024)

How the values were obtained:
[1] = Oral bioavailability in mouse; assay type: ADME, organism-based; conditions: in vivo
[2] = Binding affinity to 5-HT3R (unknown origin) assessed as inhibition constant; design: species or system Homo sapiens
[3] = Elimination half life in human; assay type: ADME; conditions: read-out: beta t1/2 (converted)
[4] = Volume of distribution at steady state in iv dosed human; conditions: in vivo, read-out: Vdss
[5] = Plasma clearance in iv dosed human
[6] = Oral bioavailability in human; assay type: ADME, organism-based; conditions: in vivo
[7] = Terminal half life in iv dosed mouse; assay type: ADME, organism-based; conditions: in vivo, read-out: beta t1/2 (converted)
[8] = molecular target: 5-hydroxytryptamine receptor 2B (Homo sapiens, UniProt P41595); test: Binding affinity to 5-HT2B receptor (unknown origin) assessed as inhibition constant
5-hydroxytryptamine receptor 2B, sequence (P41595 whole entry): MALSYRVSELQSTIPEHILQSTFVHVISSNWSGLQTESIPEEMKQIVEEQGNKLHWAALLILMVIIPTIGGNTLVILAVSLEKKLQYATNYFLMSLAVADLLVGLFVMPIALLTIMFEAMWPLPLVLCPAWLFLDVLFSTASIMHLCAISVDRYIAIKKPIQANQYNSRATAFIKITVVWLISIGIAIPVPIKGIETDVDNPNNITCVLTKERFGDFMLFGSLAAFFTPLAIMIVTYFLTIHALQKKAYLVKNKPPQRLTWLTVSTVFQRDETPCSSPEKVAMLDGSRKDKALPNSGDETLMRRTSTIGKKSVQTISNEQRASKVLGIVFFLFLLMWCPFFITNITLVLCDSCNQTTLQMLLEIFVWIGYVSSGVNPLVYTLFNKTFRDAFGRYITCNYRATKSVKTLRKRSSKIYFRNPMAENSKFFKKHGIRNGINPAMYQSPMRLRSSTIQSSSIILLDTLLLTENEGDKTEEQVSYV

[9] = Cmax in human plasma; assay type: ADME, cell-free
[10] = Terminal half life in human; assay type: ADME; conditions: read-out: beta t1/2 (converted)
[11] = AUC (0 to 24 hrs) in human at 40 mg, po by LC-MS/MS analysis; conditions: in vivo
Half life in human = conditions: in vivo
[12] = Volume of distribution in human at 80 to 100 mg; assay type: ADME; conditions: dose 80-100 mg
[13] = Binding affinity to MT1 receptor (unknown origin) assessed as inhibition constant; design: species or system Homo sapiens
[14] = molecular target: 5-hydroxytryptamine receptor 1B (Homo sapiens, UniProt P28222); test: Binding affinity to 5-HT1B receptor (unknown origin) assessed as inhibition constant
5-hydroxytryptamine receptor 1B, sequence (P28222 whole entry): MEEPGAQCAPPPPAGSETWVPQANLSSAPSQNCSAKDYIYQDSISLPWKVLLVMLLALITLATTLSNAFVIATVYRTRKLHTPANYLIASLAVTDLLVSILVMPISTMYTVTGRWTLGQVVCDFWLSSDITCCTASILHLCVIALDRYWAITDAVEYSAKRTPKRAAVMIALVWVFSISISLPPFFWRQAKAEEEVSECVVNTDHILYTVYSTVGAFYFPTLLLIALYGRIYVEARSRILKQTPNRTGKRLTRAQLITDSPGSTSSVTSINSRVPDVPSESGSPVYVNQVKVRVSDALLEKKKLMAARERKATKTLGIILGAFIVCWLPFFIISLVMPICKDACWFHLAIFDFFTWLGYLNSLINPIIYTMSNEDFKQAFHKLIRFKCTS

[15] = Initial half life in iv dosed mouse; conditions: in vivo, read-out: beta t1/2
[16] = Volume of distribution in human; assay type: ADME
[17] = Apparent oral clearance in human
[18] = Volume of distribution in Wistar rat; assay type: ADME; conditions: in vivo
[19] = Half life in human plasma; assay type: ADME, cell-free
[20] = molecular target: 5-hydroxytryptamine receptor 1D (Homo sapiens, UniProt P28221); test: Binding affinity to 5-HT1DR (unknown origin) assessed as inhibition constant
5-hydroxytryptamine receptor 1D, sequence (P28221 whole entry): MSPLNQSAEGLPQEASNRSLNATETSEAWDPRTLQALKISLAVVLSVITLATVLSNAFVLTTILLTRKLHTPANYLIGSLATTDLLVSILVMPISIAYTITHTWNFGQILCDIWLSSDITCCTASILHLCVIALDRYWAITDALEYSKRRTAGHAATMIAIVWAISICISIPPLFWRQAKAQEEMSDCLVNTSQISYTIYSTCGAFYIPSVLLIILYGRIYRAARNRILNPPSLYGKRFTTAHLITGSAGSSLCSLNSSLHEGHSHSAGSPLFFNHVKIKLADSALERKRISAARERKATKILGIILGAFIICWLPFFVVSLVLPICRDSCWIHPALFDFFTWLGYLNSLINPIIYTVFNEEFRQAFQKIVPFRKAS

[21] = Tmax in human; assay type: ADME
[22] = Terminal half life in human at 10 mg/kg, iv; conditions: in vivo, read-out: beta t1/2 (converted)
[23] = Elimination half life in rat; assay type: ADME; conditions: in vivo, read-out: beta t1/2 (converted)

`CCCN1C[C@H](CSC)C[C@@H]2c3cccc4[nH]cc(c34)C[C@H]21` [PERGOLIDE] showed a bioavailability [1] of 55%.
Molecule `Cc1[nH]cnc1CN1CCc2c(c3ccccc3n2C)C1=O` [ALOSETRON] has a Ki [2] of 500 pM, a half-life [3] of 1.5 h and a Vd [4] of 65 L. It also gave a clearance [5] of 600 mL/min and a bioavailability [6] of 50%.
`CN1C[C@H](C(=O)N[C@]2(C)O[C@@]3(O)[C@@H]4CCCN4C(=O)[C@H](Cc4ccccc4)N3C2=O)C[C@@H]2c3cccc4[nH]cc(c34)C[C@H]21` [DIHYDROERGOTAMINE] showed a half-life [7] of 9 h and a Ki [8] of 3700 pM.
With `N#Cc1ccc2[nH]cc(CCCCN3CCN(c4ccc5oc(C(N)=O)cc5c4)CC3)c2c1` [VILAZODONE] the Cmax [9] was 156 ng/mL, the half-life [10] was 25 h and the AUC [11] was 1640 ng·h/mL.
With `CC[C@@H](CO)NC(=O)[C@@H]1C=C2c3cccc4[nH]cc(c34)C[C@H]2N(C)C1` [METHYLERGONOVINE] the half-life (Half life in human) was 2.5 h, the bioavailability [6] was 40% and the Vd [12] was 2.4 L/kg.
`Cc1nccn1CC1CCc2c(c3ccccc3n2C)C1=O` (stereo unspecified) [ONDANSETRON] showed a Ki [8] of 2500 pM, a half-life [3] of 3.1 h and a bioavailability [6] of 56%.
With `COc1ccc2[nH]cc(CCNC(C)=O)c2c1` [MELATONIN] the Ki [13] was 50 pM and the half-life [3] was 1 h.
`CNS(=O)(=O)CCc1ccc2[nH]cc(C3CCN(C)CC3)c2c1` showed a Ki [14] of 1500 pM.
`COC(=O)[C@@H]1[C@H]2C[C@H]3c4[nH]c5ccccc5c4CCN3C[C@@H]2CC[C@@H]1O` [YOHIMBINE] gave a half-life [15] of 3.7 min and a half-life [3] of less than 1 h.
`O=C(O[C@@H]1C[C@@H]2C[C@H]3C[C@H](C1)N2CC3=O)c1c[nH]c2ccccc12` [DOLASETRON] showed a Vd [16] of 5.8 L/kg.
`CCc1cc2c(cc1N1CCC(N3CCOCC3)CC1)C(C)(C)c1[nH]c3cc(C#N)ccc3c1C2=O` [ALECTINIB] gave a CL/F [17] of 1370 mL/min and a Vd [18] of 4020 L.
`CC[C@]1(O)C[C@@H]2CN(CCc3c([nH]c4ccccc34)[C@@](C(=O)OC)(c3cc4c(cc3OC)N(C)[C@H]3[C@@](O)(C(=O)OC)[C@H](OC(C)=O)[C@]5(CC)C=CCN6CC[C@]43[C@@H]65)C2)C1` [VINBLASTINE] gave a half-life [7] of 1.6 h.
Work on `CN1[C@@H]2CC[C@H]1C[C@@H](OC(=O)c1c[nH]c3ccccc13)C2` [TROPISETRON] yielded a half-life [19] of 5 h and a bioavailability [6] of 60%.
In the case of `O=C1NCCN1CCN1CCC(c2cn(-c3ccc(F)cc3)c3ccc(Cl)cc23)CC1` [SERTINDOLE], the half-life (Half life in human) is reported as 53 h, the bioavailability [6] is reported as 75% and the Vd [12] is reported as 20 L/kg.
`CN(C)CCc1c[nH]c2ccc(C[C@H]3COC(=O)N3)cc12` [ZOLMITRIPTAN] gave a Ki [14] of 400 pM and a Ki [20] of 400 pM.
Work on `CO[C@@H]1[C@H](N(C)C(=O)c2ccccc2)C[C@H]2O[C@]1(C)n1c3ccccc3c3c4c(c5c6ccccc6n2c5c31)C(=O)NC4` [MIDOSTAURIN] yielded a Vd [16] of 95.2 L and a half-life [19] of 21 h.
Molecule `CC(C)NCC(O)COc1cccc2[nH]ccc12` (stereo unspecified) [PINDOLOL] has a Tmax [21] of 1 h, a half-life (Half life in human) of 3 h and a Vd [12] of 2 L/kg.
Molecule `CC(C)n1c(/C=C/C(O)CC(O)CC(=O)O)c(-c2ccc(F)cc2)c2ccccc21` (stereo unspecified) [FLUVASTATIN] has a Vd [16] of 0.35 L/kg.
With `COc1ccccc1OCCNCC(O)COc1cccc2[nH]c3ccccc3c12` (stereo unspecified) [CARVEDILOL] the half-life (Half life in human) was 7 h.
In the case of `CCCCCNC(=N)N/N=C/c1c[nH]c2ccc(OC)cc12` [TEGASEROD], the half-life [22] is reported as 11 h, the Vd [4] is reported as 368 L and the clearance [5] is reported as 1280 mL/min.
With `Cc1[nH]c2ccccc2c1CCNCc1ccc(/C=C/C(=O)NO)cc1` [PANOBINOSTAT] the CL/F [17] was 2670 mL/min and the half-life [19] was 37 h.
With `COc1ccc2c(c1)c(CC(=O)O)c(C)n2C(=O)c1ccc(Cl)cc1` [INDOMETHACIN] the half-life [23] was 7 h.
